# Assays:
# Type in all cases: biochemical
# c-Met [1] = target: T1, c-Met (Homo sapiens, UniProt P08581); experiment: Kinase-Glo Plus luminescence kinase assay, single dose […]
# c-Met [2] = target: T1, c-Met; experiment: Kinase-Glo Plus luminescence kinase assay, single dose […] (weak, partial inhibition)
# CDK2 = target: T2, CDK2 (Homo sapiens, UniProt P24941); experiment: in vitro kinase assay, dose-response on CDK2/E (Kinase-Glo Plus luminescence described for CDK2/cyclin A2)
# T2 construct: with cyclin E (IC50)
# T1 sequence (P08581 25-307): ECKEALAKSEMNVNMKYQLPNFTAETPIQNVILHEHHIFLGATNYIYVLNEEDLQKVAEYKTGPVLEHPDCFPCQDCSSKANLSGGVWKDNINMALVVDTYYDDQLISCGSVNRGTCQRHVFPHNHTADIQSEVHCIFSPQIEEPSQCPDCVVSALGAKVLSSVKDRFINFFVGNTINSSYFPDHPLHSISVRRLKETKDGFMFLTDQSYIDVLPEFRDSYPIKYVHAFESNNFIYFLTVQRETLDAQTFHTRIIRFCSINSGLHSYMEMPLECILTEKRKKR
# T1 sequence (P08581 308-1390): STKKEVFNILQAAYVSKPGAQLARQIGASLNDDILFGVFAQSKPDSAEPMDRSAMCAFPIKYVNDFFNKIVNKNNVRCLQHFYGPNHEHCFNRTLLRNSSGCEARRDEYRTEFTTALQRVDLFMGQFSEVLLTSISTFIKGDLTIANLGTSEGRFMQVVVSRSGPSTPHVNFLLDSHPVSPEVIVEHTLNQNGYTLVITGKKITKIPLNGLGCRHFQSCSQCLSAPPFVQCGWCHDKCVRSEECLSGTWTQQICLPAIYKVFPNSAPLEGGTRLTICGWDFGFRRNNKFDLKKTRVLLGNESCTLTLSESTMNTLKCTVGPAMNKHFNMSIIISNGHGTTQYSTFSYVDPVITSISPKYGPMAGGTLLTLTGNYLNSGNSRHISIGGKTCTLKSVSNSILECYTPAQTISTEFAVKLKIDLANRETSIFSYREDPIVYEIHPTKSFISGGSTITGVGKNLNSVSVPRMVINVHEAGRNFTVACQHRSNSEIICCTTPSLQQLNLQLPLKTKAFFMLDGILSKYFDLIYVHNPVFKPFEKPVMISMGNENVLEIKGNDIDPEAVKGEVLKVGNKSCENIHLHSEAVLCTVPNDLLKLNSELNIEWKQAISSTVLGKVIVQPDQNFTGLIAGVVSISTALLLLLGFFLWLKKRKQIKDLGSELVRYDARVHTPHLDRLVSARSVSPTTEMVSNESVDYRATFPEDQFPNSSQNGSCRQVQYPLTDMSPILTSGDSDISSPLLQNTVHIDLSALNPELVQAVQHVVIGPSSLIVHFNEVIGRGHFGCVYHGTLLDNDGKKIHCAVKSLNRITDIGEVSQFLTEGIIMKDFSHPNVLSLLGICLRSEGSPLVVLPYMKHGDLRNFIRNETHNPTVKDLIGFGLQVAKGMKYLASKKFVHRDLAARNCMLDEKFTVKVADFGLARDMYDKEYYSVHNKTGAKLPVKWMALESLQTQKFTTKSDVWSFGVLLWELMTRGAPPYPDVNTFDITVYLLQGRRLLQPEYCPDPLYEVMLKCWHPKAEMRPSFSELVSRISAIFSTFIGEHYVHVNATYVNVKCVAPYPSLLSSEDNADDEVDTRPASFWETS
SMILES,inhibition at 10 µM (c-Met [1]),inhibition at 10 µM (c-Met [2]),IC50 (CDK2)
CN[C@@H]1C[C@H]2O[C@@](C)([C@@H]1OC)n1c3ccccc3c3c4c(c5c6ccccc6n2c5c31)C(=O)NC4 [Staurosporine],100%,–,–
COc1ccc2c(c1)/C(=N\NC(=O)Cc1c[nH]c3ccccc13)C(=O)N2 [HI 5],–,27%,6.32 µM
